This note sets out measurements from patent US20250041227A1, “TABLET FORMULATIONS OF RBP4 INHIBITORS AND METHODS OF USE” (BELITE BIO, INC, priority 2021, published 2025).

SMILES strings stand for the structures.

The series deals with male cynomolgus monkeys. Put plainly: In-life clinical observations (tolerability). Format: in vivo. To be noted: single PO 5 mg/animal per phase, 6 phases. An excerpt:
The test system and study design were as follows. A total of 4 male non-naïve cynomolgus monkeys were assigned to the study (age: >2 years old and body weight: 2.5-4 kg). Each animal received a single dose of capsule or tablet at the start of each phase and there were 6 phases in total. The same animals, Animal Nos. C1001, C1002, C1003 and C1004, were used for each phase with a minimum 5-day washout period between dosing for each phase, except for Animal No. C1002, Animal Tattoo No. C1708339, which was replaced by another non-naïve cynomolgus monkey, Animal Tattoo No. C1703319, due to dosing failure that happened in Phase 3. As a result, Animal Tattoo No. C1708339 was used in Phase 1 and 2, Animal Tattoo No. C1703319 was used in Phases 3 to 6. All animals were fasted overnight prior to dosing, food was returned at 4 hours post-dose.
Animals were physically examined prior to study initiation to confirm their health. Clinical observations were performed twice daily (approximately 9:30 a.m. and 4:00 p.m.). Cage-side observations for general health and appearance were also performed. On dosing day, animals were also observed before and after each sample collection time point. General condition, behavior, activity, excretion, respiration or other unusual observations noted throughout the study were recorded.

Consider `CC(=O)N1CCc2c(C(=O)N3CCC(c4ccc(F)c(F)c4C(F)(F)F)CC3)n[nH]c2C1` [Compound 1, 1-(3-(4-(3,4-difluoro-2-(trifluoromethyl)phenyl)piperidine-1-carbonyl)-1,4,5,7-tetrahydro-6H-pyrazolo[3,4-c]pyridin-6-yl)ethan-1-one], for which the “adverse effects during the in-life phase” value is reported as “No adverse effects were observed”.
